Test results from patent publication US9789096B2, “Methods and compositions for selective and targeted cancer therapy” (Board of Regents of the University of Texas System, priority 2013, dated 2017).

Columns and labels:
[1] = biological target: T1, SCD1 (Mus musculus, UniProt P13516); test: Tritium release assay of SCD1 activity, mouse liver; assay type: biochemical; details: liver expresses CYP4F11
T1 construct: tissue derived from mouse liver and preputial gland was independently exposed; from tissue; host or cells: mouse liver
T1 sequence (P13516 whole entry): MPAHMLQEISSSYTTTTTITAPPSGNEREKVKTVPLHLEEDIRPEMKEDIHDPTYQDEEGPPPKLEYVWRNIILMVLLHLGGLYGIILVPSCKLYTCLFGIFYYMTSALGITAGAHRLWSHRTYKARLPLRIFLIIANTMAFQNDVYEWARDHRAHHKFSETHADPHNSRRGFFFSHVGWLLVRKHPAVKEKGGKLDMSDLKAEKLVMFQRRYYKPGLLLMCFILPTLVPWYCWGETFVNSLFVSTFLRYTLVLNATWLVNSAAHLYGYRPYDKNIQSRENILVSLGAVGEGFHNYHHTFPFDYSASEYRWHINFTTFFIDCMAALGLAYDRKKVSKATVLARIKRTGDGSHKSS
Excerpt: (§1) FIGS. 10A-10F. Sensitive cells express high levels of CYP4 family members. FIG. 10A. relative expression levels of mRNA for a panel of cytochrome P450 enzymes from the cancer cell line encyclopedia (CCLE, http://www.broadinstitute.org/ccle) showing CYP4F11 in particular is highly expressed in 4 NSCLC lines that are sensitive to SCD1 inhibition. FIG. 10B. Western blot showing that CYP4F11 protein is expressed in all sensitive cell lines but not in the majority of insensitive cell lines. FIG. 10C. […] FIG. 10D. Cells were incubated with either a methoxy-containing oxalamide, which represents the pro-drug form, or the hydroxy containing oxalamide, which represents the active form of the drug. […] FIG. 10E. 293t cells were transfected with mammalian expression plasmids containing SCD1 or CYP4F11 as indicated. Cells were treated with either SW208108 or its demethylated congener, SW211666, and conjugated with a fluorescent dye as described in FIG. 7. Cells containing CYP4F11 form covalent adducts with both the pro-drug (methoxy) and drug form (demethylated, i.e. OH). […] FIG. 10F. Shown are the results of a tritium release assay in which tritiated water is produced from tritiated stearoyl CoA by the action of SCD1. […] By contrast, SW211666 but not SW208108 inhibits SCD1 in mouse preputial gland, which lacks CYP4F11 (bottom). […]

[2] = biological target: T2, SCD1 (Homo sapiens, UniProt O00767); test: Cross-linking of SW208108 in 12 NSCLC cell lines; assay type: cell-based
T2 sequence (O00767 1-359): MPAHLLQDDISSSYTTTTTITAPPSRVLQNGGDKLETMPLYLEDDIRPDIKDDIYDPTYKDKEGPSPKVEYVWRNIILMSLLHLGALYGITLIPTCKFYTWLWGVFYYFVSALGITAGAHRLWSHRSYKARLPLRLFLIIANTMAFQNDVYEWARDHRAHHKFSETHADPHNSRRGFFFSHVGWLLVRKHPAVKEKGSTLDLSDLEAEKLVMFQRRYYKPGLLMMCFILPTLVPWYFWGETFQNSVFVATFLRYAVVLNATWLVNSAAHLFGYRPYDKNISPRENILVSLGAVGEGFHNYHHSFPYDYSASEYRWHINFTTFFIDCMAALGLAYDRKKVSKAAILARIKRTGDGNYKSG
Description: FIGS. 9A-9D. Selective toxins selectively cross-link to SCD1 in sensitive cells and are selectively metabolized in sensitive cells. FIG. 9A. 12 NSCLC cell lines were incubated with SW208108 and processed as described in FIG. 7. […] FIG. 9B. […] FIG. 9C. […] Demethylation is the anticipated mode of metabolism. FIG. 9D. A representative benzothiazole is demethylated by sensitive cell lines. […] Values in FIGS. 9C and 9D were obtained by tandem HPLC/MS/MS.
In this context, 12 different NSCLC cell lines were treated with SW208108, lysed and clicked to a dye as previously described. […] To understand how SW208108 could selectively cross-link to SCD1 within some cell lines that expressed the enzyme but not other cell lines that expressed the same enzyme, we investigated the stability of a representative oxalamide in the presence of a sensitive and insensitive cell line. […] Similarly, a representative benzothiazole was metabolized by H2122 cells through, at least in part, the loss of the O-methyl group (FIG. 9D).

[3] = biological target: T3, HMOX2 (Homo sapiens, UniProt P30519); test: HMOX2 activity in H2122 cell homogenate (bilirubin production); assay type: biochemical
T3 construct: endogenous in cells; host or cells: H2122 cells (homogenate / lysate)
T3 sequence (P30519 whole entry): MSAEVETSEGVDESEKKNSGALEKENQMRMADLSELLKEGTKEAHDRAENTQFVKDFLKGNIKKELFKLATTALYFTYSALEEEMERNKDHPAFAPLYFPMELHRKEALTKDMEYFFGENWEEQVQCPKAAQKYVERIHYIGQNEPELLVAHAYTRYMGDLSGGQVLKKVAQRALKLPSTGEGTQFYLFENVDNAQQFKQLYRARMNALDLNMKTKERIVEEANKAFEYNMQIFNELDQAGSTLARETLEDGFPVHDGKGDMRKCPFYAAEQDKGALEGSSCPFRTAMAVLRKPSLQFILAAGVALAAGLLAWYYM
Description: FIG. 7N. Oxalamide inhibits the activity of HMOX2 in vitro. H2122 cell homogenate was incubated with varying concentrations of SW208108 in the presence of excess NADPH, NADPH cytochrome reductase, and biliverdin reductase. The samples were extracted with chloroform and absorbance was measured at 450 nm refecting bilirubin production.
However, when HO2 was knocked out from H2122 cells using Crisper technology (FIG. 7O), no toxicity was observed, and SW208108 and related compounds retained toxicity towards H2122 cells (FIG. 7P). We conclude that HO2 is not required for cell survival or for the cytotoxicity of the selective toxins.

[4] = biological target: T2, SCD1; test: Covalent adduct formation in 293t cells transfected with SCD1 or CYP4F11; assay type: cell-based; design: expressed in transfected cells; host or cells: 293t cells
Excerpt: as §1

[5] = tested on: H2122 cells; test: Lipid ratios in H2122 cells by MS/MS; assay type: cell-based, human; details: 100 nM, within 6 hours
Description: FIG. 8A. Covalent binders of SCD1 affect lipid ratios in human cancer cells. H2122 cells were treated with 100 nM SW208108 for the indicated times before a lipid extraction was performed. Lipid extracts were analyzed by MS/MS in order to determine the fractional content of 8 different lipid species including triacylglycerols (TAG) and diacylglycerols (DAG). In MS/1, the total number of carbons and number of unsaturated bonds was determined for all of the fatty acid chains. For example, TAG (50:3) is a triacylglycerol with 3 fatty acid chains that all together have 50 carbons and 3 unsaturated bonds. The mass for one of these fatty acids was determined in MS/2 and is listed as noted by its carbon length and unsaturated bond number using the same notation.
SCD1 catalyzes the dehydrogenation of saturated fatty acid-CoA's to form unsaturated fatty acid-CoA's. For example, the enzyme gets its name from the conversion of stearic acid-CoA to oleic acid-CoA. For this reason, inhibition SCD1 was expected to alter the ratio of saturated:unsaturated fatty acids.

Structure (SMILES): C#CCOc1ccc(C(=O)c2ccc(NC(=O)C(=O)NCCc3ccc(OC)cc3)cc2)cc1 [SW208108]
- inhibition of SCD1 activity in mouse liver tissue [1]: only inhibited SCD1 activity in the liver
- cross linked SCD1 bands in 12 NSCLC cell lines [2]: Prominent cross linked bands
- activity of HMOX2 in vitro [3]: inhibits
- covalent modification of SCD1 in 293t cells in the absence of CYP4F11 ([4]; SCD1 expressed alone): unable to covalently modify SCD1
- covalent modification of SCD1 in 293t cells expressing SCD1 and CYP4F11 ([4]; with or without HET0016): covalently modify SCD1
- saturated vs unsaturated fatty acids in neutral lipids [5]: increased the percentage of neutral lipids containing saturated fatty acids
